Results as given in patent publication US8722030B2, “Composite vaccine adjuvant” (Institute of Medical Biology, Chinese Academy of Medical …, priority 2011, dated 2014).

Key:
Details in all cases: P<0.05
anti-HBs IgG [1] = test: Test 3: serum anti-HBs IgG level by ELISA after immunization with hepatitis B surface antigen plus adjuvant (composite adjuvant of embodiment 3)
Method: Both of the total volume of vaccines for injection and of the composite vaccine adjuvant were 0.1 ml.
In the single sodium ferulate adjuvant group, sodium ferulate 50 mg and hepatitis B surface antigen 5 μg were mixed and dissolved into physiological saline 0.1 ml, and then were injected into mice subcutaneously.
(§1) In the adjuvant-free group, hepatitis B surface antigen 5 μg were mixed and dissolved into physiological saline 0.1 ml, and then were injected into mice subcutaneously.
(§2) In the blank group, each mouse was injected with physiological saline 0.1 ml.
(§3) Immunization schemes: three times immunization in total, subcutaneous injection of ICR mice in 0, 1, 6 month respectively.
B. ELISA Detection of Serum Anti-HBs IgG Level
After 4, 8, 16, 24, 32 weeks of the initial immunization, collect vein blood of mouse tail, separate serum, and then use ELISA to detect the serum anti-HBs IgG level by method of protein microporous kit. […]
(§4) The obtained experimental data were analyzed by single factor analysis of variance using SPSS11.5 statistics software, and P<0.05 having a statistically significance.

anti-HBs IgG [2] = test: Test 1: serum anti-HBs IgG level by ELISA after immunization with hepatitis B surface antigen plus adjuvant (composite adjuvant of embodiment 1)
Method: Both of the total volume of vaccines and the composite vaccine adjuvant for injection were 0.1 ml.
In the single sodium ferulate adjuvant group, sodium ferulate 10 mg and hepatitis B surface antigen 5 μg were mixed and dissolved into physiological saline 0.1 ml, and then were injected into mice subcutaneously.
as §1, §2, §3
(§5) B. ELISA Detection of Serum Anti-HBs IgG Level […]
as §4

anti-HBs IgG [3] = test: Test 2: serum anti-HBs IgG level by ELISA after immunization with hepatitis B surface antigen plus adjuvant (composite adjuvant of embodiment 2)
Method: Both of the total volume of vaccine for injection and of the composite vaccine adjuvant were 0.1 ml.
In the single sodium ferulate adjuvant group, sodium ferulate 25 mg and hepatitis B surface antigen 5 μg were mixed and dissolved into physiological saline 0.1 ml, and then were injected into mice subcutaneously.
In the adjuvant-free group, hepatitis B surface antigen 5 μg were dissolved into physiological saline 0.1 ml, and then were injected into mice subcutaneously.
as §2, §3, §5, §4

Measured: antibody levels compared with the aluminum adjuvant control group

[OH-].[OH-].[Zn+2] [zinc hydroxide]
significantly higher: anti-HBs IgG [1] | anti-HBs IgG [2] | anti-HBs IgG [3]
